ChEMBL document CHEMBL1909046, “DrugMatrix in vitro pharmacology data”

Columns and labels:
[1] = DRUGMATRIX: Glutamate, NMDA, Phencyclidine radioligand binding (ligand: [3H] TCP); type: cell membranes, Rattus norvegicus, Wistar, Cerebral cortex, Membrane; details: Not Active = under 50% inhibition at 10 µM
[2] = DRUGMATRIX: Sigma2 radioligand binding (ligand: [3H] Ifenprodil); type: cell membranes, Rattus norvegicus, Wistar, Brain, Membrane; details: Not Active = under 50% inhibition at 10 µM
[3] = DRUGMATRIX: GABAA, Muscimol, Central radioligand binding (ligand: [3H] Muscimol); type: cell membranes, Rattus norvegicus, Wistar, Brain, Membrane; details: Not Active = under 50% inhibition at 10 µM
Cytochrome P450 2D6 = Cytochrome P450 2D6 (Homo sapiens, UniProt P10635); details: bti-tn-5b1-4; note: in other assays of this panel Not Active means under 50% inhibition at 10 µM
[4] = DRUGMATRIX: Phosphodiesterase PDE4 enzyme inhibition (substrate: [3H]cAMP + cAMP); details: u-937; Not Active = under 50% inhibition at 10 µM
[5] = DRUGMATRIX: Calcium Channel Type L, Phenylalkylamine radioligand binding (ligand: [3H] (-)-Desmethoxyverapamil (D-888)); type: cell membranes, Rattus norvegicus, Wistar, Brain, Membrane; details: Not Active = under 50% inhibition at 10 µM
[6] = molecular target: T1, Alpha-1B adrenergic receptor (Rattus norvegicus, UniProt P15823); assay: DRUGMATRIX: Alpha-1B adrenergic receptor radioligand binding (ligand: prazosin); type: cell membranes, Wistar, Liver, Membrane; details: Not Active = under 50% inhibition at 10 µM
T1 sequence (P15823 whole entry): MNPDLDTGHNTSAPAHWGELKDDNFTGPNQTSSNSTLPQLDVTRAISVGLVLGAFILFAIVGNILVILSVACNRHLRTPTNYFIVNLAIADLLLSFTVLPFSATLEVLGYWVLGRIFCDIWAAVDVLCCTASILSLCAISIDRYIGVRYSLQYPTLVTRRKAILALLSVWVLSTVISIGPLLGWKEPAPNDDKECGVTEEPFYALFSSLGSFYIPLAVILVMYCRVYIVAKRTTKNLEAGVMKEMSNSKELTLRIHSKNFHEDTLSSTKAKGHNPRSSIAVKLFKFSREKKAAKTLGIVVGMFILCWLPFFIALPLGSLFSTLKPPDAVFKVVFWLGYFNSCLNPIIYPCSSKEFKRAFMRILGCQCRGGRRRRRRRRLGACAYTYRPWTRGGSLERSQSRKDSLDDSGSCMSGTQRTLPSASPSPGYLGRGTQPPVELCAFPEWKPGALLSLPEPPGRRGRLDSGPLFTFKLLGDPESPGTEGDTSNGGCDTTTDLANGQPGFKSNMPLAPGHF

[7] = DRUGMATRIX: Atrial Natriuretic Factor (ANF) radioligand binding (ligand: [125I] ANF (rat)); type: cell membranes, Cavia porcellus, Dunkin-Hartley, Adrenal gland, Membrane; details: Not Active = under 50% inhibition at 10 µM

Cytochrome P450 2D6, sequence (P10635 whole entry): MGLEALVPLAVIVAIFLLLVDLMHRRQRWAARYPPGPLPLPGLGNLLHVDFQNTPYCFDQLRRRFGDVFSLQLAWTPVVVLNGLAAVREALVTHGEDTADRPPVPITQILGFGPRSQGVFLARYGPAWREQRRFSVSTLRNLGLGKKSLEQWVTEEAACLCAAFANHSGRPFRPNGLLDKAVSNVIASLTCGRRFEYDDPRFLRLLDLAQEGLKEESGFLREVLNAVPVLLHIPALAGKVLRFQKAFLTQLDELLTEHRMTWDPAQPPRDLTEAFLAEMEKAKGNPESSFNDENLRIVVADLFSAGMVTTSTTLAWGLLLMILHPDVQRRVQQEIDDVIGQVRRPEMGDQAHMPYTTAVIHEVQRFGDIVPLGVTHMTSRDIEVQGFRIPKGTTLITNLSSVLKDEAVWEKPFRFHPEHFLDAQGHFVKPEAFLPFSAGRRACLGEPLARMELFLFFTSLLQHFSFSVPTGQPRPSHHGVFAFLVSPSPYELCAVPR

Nc1ccc(S(=O)(=O)NC(=O)c2ccccc2)cc1 [SULFABENZAMIDE]
Not Active: IC50 [1] | Ki [1] | IC50 [2] | Ki [2] | IC50 [3] | Ki [3] | IC50 (Cytochrome P450 2D6) | Ki (Cytochrome P450 2D6) | IC50 [4] | Ki [4] | IC50 [5] | Ki [5] | IC50 [6] | IC50 [7] | Ki [7]

O=c1[nH]c(=O)n(C2CCCO2)cc1F (configuration not stated) [TEGAFUR]
Not Active: IC50 [1] | Ki [1] | IC50 [2] | Ki [2] | IC50 [3] | Ki [3] | IC50 (Cytochrome P450 2D6) | Ki (Cytochrome P450 2D6) | IC50 [4] | Ki [4] | IC50 [5] | Ki [5] | IC50 [6] | IC50 [7] | Ki [7]

CC(=N)S [THIOACETAMIDE]
Not Active: IC50 [1] | Ki [1] | IC50 [2] | Ki [2] | IC50 [3] | Ki [3] | IC50 (Cytochrome P450 2D6) | Ki (Cytochrome P450 2D6) | IC50 [4] | Ki [4] | IC50 [5] | Ki [5] | IC50 [6] | IC50 [7] | Ki [7]

Cc1ccc(C(=O)c2ccc(CC(=O)O)n2C)cc1 [TOLMETIN]
Not Active: IC50 [1] | Ki [1] | IC50 [2] | Ki [2] | IC50 [3] | Ki [3] | IC50 (Cytochrome P450 2D6) | Ki (Cytochrome P450 2D6) | IC50 [4] | Ki [4] | IC50 [5] | Ki [5] | IC50 [6] | IC50 [7] | Ki [7]

CC(=O)OCC(COC(C)=O)OC(C)=O [TRIACETIN]
Not Active: IC50 [1] | Ki [1] | IC50 [2] | Ki [2] | IC50 [3] | Ki [3] | IC50 (Cytochrome P450 2D6) | Ki (Cytochrome P450 2D6) | IC50 [4] | Ki [4] | IC50 [5] | Ki [5] | IC50 [6] | IC50 [7] | Ki [7]

TRANSPLATIN
Not Active: IC50 [1] | Ki [1] | IC50 [2] | Ki [2] | IC50 [3] | Ki [3] | IC50 (Cytochrome P450 2D6) | Ki (Cytochrome P450 2D6) | IC50 [4] | Ki [4] | IC50 [5] | Ki [5] | IC50 [6] | Ki [6] | IC50 [7] | Ki [7]

ZIRCONIUM(IV) CHLORIDE
Not Active: IC50 [1] | Ki [1] | IC50 [2] | Ki [2] | IC50 [3] | Ki [3] | IC50 (Cytochrome P450 2D6) | Ki (Cytochrome P450 2D6) | IC50 [4] | Ki [4] | IC50 [5] | Ki [5] | IC50 [6] | Ki [6] | IC50 [7] | Ki [7]
